Assays:
[1] = RP-TLC chromatographic lipophilicity parameter (RMW); format: physicochemical; details: RP2, RP18, RP18W plates; methanol-water, propan-1-ol-water, acetonitrile-water
Description: (§1) The lipophilicity study was performed on chromatographic plates for RP-TLC and NP-TLC analysis purchased from Merck (Darmstadt, Germany): silica gel RP18F254 (aluminum plates, No. 1.05559), silica gel RP2F254 (glass plates, No. 1.05747), and RP18WF254 (glass plates, No. 1.13142) were applied as stationary phases in the reversed-phase system. In the case of the NP-TLC system, aluminum chromatographic plates precoated with silica gel 60F254 without (No. 1.05554) and with a concentrating zone (No. 1.05583), glass plates precoated with silica gel 60CNF254 (No. 1.16464), and aluminum plates coated with the mixture of silica gel 60 and Kieselguhr F254 were tested (No. 1.05567).
The lipophilicity studies of the tested compounds were carried out on chromatographic plates 10 cm × 10 cm developed using mobile phases (50 mL) prepared by mixing the respective amounts of the organic modifier (methanol/acetonitrile/propan-1-ol/acetone) and water. In the case of NP-TLC analysis, the addition of 2.4% glacial acetic acid in the mobile phase methanol-water was used. […] The average value of RF (retardation factor) was determined in every case.
(§2) In this study, the chromatographic lipophilicity parameters of both studied compounds were calculated based on the retardation factor (RF) obtained for metformin and phenformin in each mobile phase and chromatographic plates used as the stationary phase. […]

[2] = NP-TLC chromatographic lipophilicity parameter (RMW); format: physicochemical; details: for RMW range over NP-TLC plates: four chromatographic plates; for RMW: NP-TLC
Description: as §1
The lipophilicity studies of the tested compounds were carried out on chromatographic plates 10 cm × 10 cm developed using mobile phases (50 mL) prepared by mixing the respective amounts of the organic modifier (methanol/acetonitrile/propan-1-ol/acetone) and water. In the case of NP-TLC analysis, the addition of 2.4% glacial acetic acid in the mobile phase methanol-water was used. The organic modifier concentrations (volume fraction, v/v) varied in a range from 0.40 to 0.90 in constant steps of 0.10. […] Chromatography was performed in a classical developing chamber, which was previously saturated with mobile phase vapors for 20 min. The migration distance was 7.0 cm. After the development, the plates were dried at room temperature (20 ± 1 °C) and visualized in UV light (λ = 254 nm) as the maximum wavelength for both biguanides. All analyses were repeated in triplicate. The average value of RF (retardation factor) was determined in every case.
as §2
Then, a linear correlation between the RM of the tested compounds and the volume ratio of the organic solvent in the mobile phase was performed for every chromatographic plate. The extrapolation of calculated RM values to the zero concentration of the organic modifier (i.e., to pure water) in accordance with Soczewiński-Wachtmeister’s Equation (2) allowed determining a valuable chromatographic parameter of lipophilicity expressed as RMW [1]. RM = RMW − S⋅φ(2) where RMW is the chromatographic parameter obtained using Soczewiński–Wachtmeister’s Equation (2), S is the regression slope, and φ is the volume fraction of the organic modifier (e.g., methanol, propan-1-ol, acetonitrile, acetone) in the mobile phase composition. Statistica v. 13.3 software (StatSoft, Kraków, Poland) was used to determine the parameters of these linear relationships.

[3] = n-octanol-water, literature value ref 46; cited from earlier work

SMILES	RMW range over RP-TLC systems [1]	RMW range over NP-TLC plates ([2]; acetone-water)	RMW range over NP-TLC plates ([2]; methanol-water-acetic acid)	RMW ([2]; Silica gel 60F254, acetone-water)	RMW ([2]; Silica gel 60F254 with concentrating zone, methanol-water-acetic acid)	logPow [3]
CN(C)C(=N)N=C(N)N [Metformin, dimethylbiguanide]	−4.877 to 0.960	−4.127 to 1.242	−6.657 to 0.833			
[H]/N=C(/N)N/C(=N/[H])NCCc1ccccc1 [Phenformin]	0.142 to 0.728	−4.383–0.790	−1.983–6.170	-4.383	-1.983	−0.83
